Measured values: the NIST ThermoML archive (doi:10.1021/je500320c)

Experiment: an = ratio of the nth substance listed
Settings: 101 kPa, Liquid, a1 = 2

NC(N)=O [urea] + C[N+](C)(C)CCO.[Cl-]
Settings	mass density [kg/m3]	viscosity [mPa·s]
298.15 K	1197.9	1571
303.15 K	1195.2	953.7
308.15 K	1192.7	608.4
313.15 K	1190.1	403.2
318.15 K	1187.5	277.2
323.15 K	1184.9	195.9
328.15 K	1182.3	143.6
333.15 K	1179.7	107.7
